From patent US11591301B2, “Indoleamine-2,3-dioxygenase inhibitor, preparation method therefor and use thereof” (HINOVA PHARMACEUTICALS INC., priority 2018, dated 2023)

Key:
[1] = biological target: IDO1 protease activity in Hela cells (Homo sapiens (Human), UniProt P14902); assay: Inhibition of IDO protease in HeLa cells (IDO/kynurenine experiment, IFN-γ induced); assay type: cell-based; conditions: 10 ng/mL IFN-γ, 48 h, OD480 nm, read-out: IC50, inhibitory activity against IDO1 protease activity in Hela cells
IDO1 protease activity in Hela cells, sequence (P14902 whole entry): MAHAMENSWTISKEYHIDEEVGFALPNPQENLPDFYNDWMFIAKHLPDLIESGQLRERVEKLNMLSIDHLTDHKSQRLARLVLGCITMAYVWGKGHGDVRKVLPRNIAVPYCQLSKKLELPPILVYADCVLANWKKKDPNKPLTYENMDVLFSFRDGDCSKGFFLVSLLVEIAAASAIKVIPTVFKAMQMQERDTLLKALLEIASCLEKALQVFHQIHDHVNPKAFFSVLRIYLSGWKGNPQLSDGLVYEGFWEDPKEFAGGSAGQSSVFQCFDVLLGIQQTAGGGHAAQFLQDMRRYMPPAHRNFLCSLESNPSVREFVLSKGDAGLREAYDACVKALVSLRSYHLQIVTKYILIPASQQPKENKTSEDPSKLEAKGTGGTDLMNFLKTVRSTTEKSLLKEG
Description: 2) Experimental Method for Compound Assay 2.1 Seeding HeLa Cells into 96 Well Plate
The medium was taken out from the flask and the cells were washed with PBS. TrypLE solution was added to the flask to make the cells separate. The cells were further washed once with fresh medium containing 10% FBS, and then re-suspended in the medium until the final concentration was 2.3×10^6/mL. Only cells with activity greater than 90% can be used for detection. HeLa cells were planted into 100 μL suitable growth median 96 well plate at 3000 cells/well. The cells were incubated at 37° C. under 5% CO2 overnight.
The compound was diluted to the concentration of 10 mM with DMSO, that was then continuously diluted 3 times to get 9 concentrations. 5 μL compound was added into 45 μL media as the median dilution (10 times dilution, containing 10% DMSO). 96 μL fresh growth media were added to each well to reach the total volume of 196 μL. 2 μL compound solution was taken from the mid-diluted solution and added to the cells in the wells of the assay plate, and then incubated in a 5% CO2 incubator at 37° C. for 30 minutes. 2 μL human IFN-γ solution was added to reach a total volume of 200 μL, with the final concentration of 10 ng/mL, and the final concentration is 0.1%. The cells were incubated in 5% CO2 incubator at 37° C. for 48 h.
After incubating for another 48 hours in a 5% CO2 incubator at 37° C., 140 μL supernatant was added to each well and transferred to a new 96-well plate. 10 μL of 6.1N CCl3COOH was further added to each well, and incubated at 50° C. for 30 min after sealing. The plate was then centrifuged at 2500 rpm for 10 minutes. 100 μL supernatant in each well was transferred to another 96-well assay plate and mixed with 100 μL of 6% (w/v) p-dimethylaminobenzaldehyde. EnSpire was used to read the plate at OD480 nm.
The average data of HC (high control: 10 ng/mL IFN-γ) and LC (low control: no IFN-γ) were calculated for each screening plate. Percent inhibition of compound well (% inh)=100*(aveHC−cpd well)/(aveHC−ave LC). Finally, GraphPad Prism 6 software was used to calculate the IC50 values of compounds and draw the effect-concentration curve.

[2] = biological target: human IDO1 protease (Homo sapiens (Human), UniProt P14902); assay: Inhibitory activity against human IDO1 protease (absorbance test method); assay type: biochemical; conditions: IDO1 (His-tag) enzyme, absorbance at 320 nm
human IDO1 protease, sequence (P14902 whole entry): as above
Description: IDO1 (His-tag) enzyme(BPS Bioscience), L-tryptophan (Sigma), methylene blue (Sigma), Catalase originated from the liver of cattle (Sigma), L-ascorbic acid (Sigma), glycerol (Sigma), potassium dihydrogen phosphate solution (Sigma), Tween 20 (Sigma), automatic sampling platformLiquid handler (Bravo & Echo), microplate ReaderSpectraMax M5e (Molecular Devices).
2) Test Method of Compounds: The Compounds are Determined by Absorbance Test Method:
The tested compounds are dissolved in DMSO to prepare a high concentration of storage solution. The stock solution of reference compound was diluted with DMSO to prepare a 100× solution. In the first column of the working plate, 8 μL above tested compounds and 8 μL 100× reference compound were respectively added as the highest concentration, and then the highest concentrations were subjected to three times dilution to obtain 11 concentrations and prepare 100× solution. 0.5 μL solution was transferred from the above plate to the detection plate. To each well was added 0.5 μL 100× compound solution. For HPE and ZPE control wells, 0.5 μL 100% DMSO was added. 25 μL 2×IDO1 (His-tag) enzyme solution (containing L-ascorbic acid, methylene blue, and catalase) was added to each well. 25 μL reaction solution without IDO1 (His-tag) enzyme was added into HPE control well. The test plate was centrifugated at 1000 rpm for 1 minute to mix well. Then, the test plate was incubated at room temperature for 30 minutes. 25 μL above 2× substrate (L-tryptophan) solution was added to each well. The test plate was centrifugated at 1000 rpm for 1 minute to mix well. The detection plate was placed on ELISA (SpectraMax M5e), the temperature was set at 25° C., and the absorbance (OD value) was measured at 320 nm every 10 minutes till 60 minutes.
Calculating the increase ratio of absorbance: the slope of the absorbance increase curve from 10 min to 60 min is derived from SpectralMax M5e. The inhibition coefficient of compound was calculated: the inhibition ratio of compound=(the absorbance increase ratio of ZPE control well−the absorbance increase ratio of compound well)/(the absorbance increase ratio of ZPE control well−the absorbance increase ratio of HPE control well)×100. Results was analyzed by Prism 5.0.

| IC50 [1] | IC50 [2] | Compound | IC50 ([2]; listed as 11) |
| --- | --- | --- | --- |
| 19 nM | 54 nM | CNS(=O)(=O)CCNc1nonc1C(=NO)Nc1ccc(F)c(Br)c1 [Example 2, N-(3-bromo-4-fluorophenyl)-N′-hydroxyl-4-((2-(N-methylsulfamoyl)ethyl)amino)-1,2,5-oxadiazol-3-formamidine] | – |
| 35 nM | 74 nM | CCNS(=O)(=O)CCNc1nonc1C(=NO)Nc1ccc(F)c(Br)c1 [Example 3, N-(3-bromo-4-fluorophenyl)-N′-hydroxyl-4-((2-(N-ethylsulfamoyl)ethyl)amino)-1,2,5-oxadiazol-3-formamidine] | – |
| – | 185 nM | CC(C)NS(=O)(=O)CCNc1nonc1C(=NO)Nc1ccc(F)c(Br)c1 [Example 4, N-(3-bromo-4-fluorophenyl)-N′-hydroxyl-4-((2-(isopropylsulfamoyl)ethyl)amino)-1,2,5-oxadiazol-3-formamidine] | – |
| 15 nM | 49 nM | O=S(=O)(CCNc1nonc1C(=NO)Nc1ccc(F)c(Br)c1)NCCO [Example 5, N-(3-bromo-4-fluorophenyl)-N′-hydroxyl-4-((2-(N-(2-hydroxylethyl)sulfamoyl)ethyl)amino)-1,2,5-oxadiazol-3-formamidine] | – |
| – | 115 nM | CN(C)S(=O)(=O)CCNc1nonc1/C(=N/O)Nc1ccc(F)c(Br)c1 [Example 7, N-(3-bromo-4-fluorophenyl)-N′-hydroxyl-4-((2-N,N-dimethylsulfamoylethyl)amino)-1,2,5-oxadiazol-3-formamidine] | – |
| 30 nM | 63 nM | CC(C)NS(=O)(=O)CCCNc1nonc1/C(=N/O)Nc1ccc(F)c(Br)c1 [Example 13, N-(3-bromo-4-fluorophenyl)-N′-hydroxyl-4-((3-(N-isopropylsulfamoyl)propyl)amino)-1,2,5-oxadiazol-3-formamidine] | – |
| 37 nM | 99 nM | O=S(=O)(CCCNc1nonc1C(=NO)Nc1ccc(F)c(Br)c1)NC1CC1 [Example 14, N-(3-bromo-4-fluorophenyl)-N′-hydroxyl-4-((3-(N-cyclopropylsulfamoyl)propyl)amino)-1,2,5-oxadiazol-3-formamidine] | – |
| 32 nM | 51 nM | O=S(=O)(CCCNc1nonc1C(=NO)Nc1ccc(F)c(Br)c1)NCCO [Example 16, N-(3-bromo-4-fluorophenyl)-N′-hydroxyl-4-((3-(N-(2-hydroxylethyl)sulfamoyl)propyl)amino)-1,2,5-oxadiazol-3-formamidine] | – |
| 10 nM | – | CCNS(=O)(=O)CCCNc1nonc1C(=NO)Nc1ccc(F)c(Br)c1 [Example 17, N-(3-bromo-4-fluorophenyl)-N′-hydroxyl-4-((3-(N-ethylsulfamoyl)propyl)amino)-1,2,5-oxadiazol-3-formamidine] | – |
| – | 99 nM | CONS(=O)(=O)CCCNc1nonc1C(=NO)Nc1ccc(F)c(Br)c1 [Example 20, N-(3-bromo-4-fluorophenyl)-N′-hydroxyl-4-((3-(N-methoxylsulfamoyl)propyl)amino)-1,2,5-oxadiazol-3-formamidine] | – |
| – | 99 nM | O=S(=O)(CCCNc1nonc1C(=NO)Nc1ccc(F)c(Br)c1)NO [Example 21, N-(3-bromo-4-fluorophenyl)-N′-hydroxyl-4-((3-(N-hydroxylsulfamoyl)propyl)amino)-1,2,5-oxadiazol-3-formamidine] | – |
| 93 nM | – | O=S(=O)(CCCCNc1nonc1/C(=N/O)Nc1ccc(F)c(Br)c1)N1CCC1 [Example 25, 4-((4-(azetidin-1-ylsulfonyl)butyl)amino)-N-(3-bromo-4-fluorophenyl)-N′-hydroxyl-1,2,5-diazol-3-formamidine] | – |
| 113 nM | – | O=S(=O)(CCCCNc1nonc1/C(=N/O)Nc1ccc(F)c(Br)c1)N1CC(F)C1 [Example 26, N-(3-bromo-4-fluorophenyl)-4-((4-((3-fluorazetidin-1-yl)sulfonyl)butyl)amino)-N′-hydroxyl-1,2,5-oxadiazol-3-amide] | – |
| 16 nM | 106 nM | [2H]C([2H])([2H])N(C([2H])([2H])[2H])S(=O)(=O)CCCNc1nonc1/C(=N/O)Nc1ccc(F)c(Br)c1 [Example 28] | – |
| 20 nM | – | [2H]C([2H])([2H])NS(=O)(=O)CCCCNc1nonc1/C(=N/O)Nc1ccc(F)c(Br)c1 [Example 29, N-(3-bromo-4-fluorophenyl)-N′-hydroxyl-4-((4-(N-deuteratedmethylsulfamoyl)butyl)amino)-1,2,5-oxadiazol-3-formamidine] | – |
| 24 nM | – | [2H]C([2H])([2H])N(C([2H])([2H])[2H])S(=O)(=O)CCCCNc1nonc1/C(=N/O)Nc1ccc(F)c(Br)c1 [Example 30] | – |
| 68 nM | – | NS(=O)(=O)CCOCCNc1nonc1/C(=N/O)Nc1ccc(F)c(Br)c1 [Example 31, N-(3-bromo-4-fluorophenyl)-N′-hydroxyl-4-(2-(2-aminosulfonylethoxyl)-ethylamine)-1,2,5-diazol-3-formamidine] | – |
| 17 nM | – | [2H]C([2H])([2H])NS(=O)(=O)CCCSc1nonc1/C(=N/O)Nc1ccc(F)c(Br)c1 [Example 32] | – |
| 69 nM | – | [2H]C([2H])([2H])NS(=O)(=O)CCCSc1nonc1/C(=N/O)Nc1cccc(Br)c1F [Example 33, N-(3-bromo-2-fluorophenyl)-N′-hydroxyl-4-((3-(N-trideuteratedmethylsulfamoyl)propyl)sulfur)-1,2,5-oxadiazol-3-formamidine] | – |
| – | 162 nM | N-(3-bromo-4-fluorophenyl)-N′-hydroxyl-4-((2-(morpholinylsulfamoyl)ethyl)amino)-1,2,5-oxadiazol-3-formamidine [Example 9] | – |

| Compound | IC50 [1] | IC50 [2] | IC50 ([2]; listed as 11) |
| --- | --- | --- | --- |
| O=S(=O)(CCNc1nonc1/C(=N/O)Nc1ccc(F)c(Br)c1)NCC(F)F [Example 6] | – | 87 nM | 44 nM |
